Values of other authors, collected in patent publication US20170231974A1, “Combined Use of an Alpha-Adrenergic Receptor Antagonist and an Anti-Muscarinic Agent” (Astellas Ireland Co., Ltd., priority 2008, published 2017).
Structures can show the parent of a compound that is named as a salt.

Test system: male patients with lower urinary tract symptoms associated with prostatic hyperplasia
[1] = male patients, at least 1 urgency episode per day and 8 or more micturitions per day

SMILES | acute urinary retention (AUR) (added to doxazosin) | effect on urinary flow rate (added to doxazosin) | improvement of storage symptom score [1] [points] | improvement of total I-PSS [1] [points] | improvement of voiding score [1] [points]
CCCOC(C(=O)OC1CCN(C)CC1)(c1ccccc1)c1ccccc1 [Propiverine, propiverine hydrochloride] | no acute urinary retention (AUR) was observed | did not affect the urinary flow rate |  |  | 
COc1cc2nc(N3CCN(C(=O)C4COc5ccccc5O4)CC3)nc(N)c2cc1OC (centres unmarked) [doxazosin] |  |  | 2.9 | 7.3 | 4.5
